Measured values taken from PubChem BioAssay (NCI).
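Five compound concentrations were applied to cells in 96-well plates for 48 hours; endpoints were derived by simple linear interpolation of the resulting dose-response curve. TGI marks complete inhibition of growth.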

Key:
Experiment in all cases: DTP human tumour cell line panel, 48 h
UACC-62 melanoma = system: UACC-62 melanoma
U251 CNS = system: U251 CNS
K-562 leukemia = system: K-562 leukemia
KM12 colon = system: KM12 colon
OVCAR-5 ovarian = system: OVCAR-5 ovarian
NCI-H460 lung = system: NCI-H460 lung
A549 NSCLC = system: A549 NSCLC
HOP-92 NSCLC = system: HOP-92 NSCLC
786-0 renal = system: 786-0 renal
SK-MEL-2 melanoma = system: SK-MEL-2 melanoma
SK-MEL-28 melanoma = system: SK-MEL-28 melanoma
MOLT-4 leukemia = system: MOLT-4 leukemia
ACHN renal = system: ACHN renal
UO-31 renal = system: UO-31 renal
BT-549 breast = system: BT-549 breast
MCF7 breast = system: MCF7 breast
NCI-H23 lung = system: NCI-H23 lung
MDA-N = system: MDA-N
RPMI-8226 leukemia = system: RPMI-8226 leukemia
CCRF-CEM leukemia = system: CCRF-CEM leukemia
SW-620 colon = system: SW-620 colon
RXF 393 renal = system: RXF 393 renal
HT29 colon = system: HT29 colon
HCT-116 colon = system: HCT-116 colon
SNB-19 CNS = system: SNB-19 CNS
HS 578T breast = system: HS 578T breast
T-47D breast = system: T-47D breast
EKVX NSCLC = system: EKVX NSCLC
SN12C renal = system: SN12C renal
MDA-MB-231 breast = system: MDA-MB-231 breast
HOP-62 NSCLC = system: HOP-62 NSCLC
COLO 205 colon = system: COLO 205 colon
M14 melanoma = system: M14 melanoma
SK-MEL-5 melanoma = system: SK-MEL-5 melanoma
HL-60(TB) leukemia = system: HL-60(TB) leukemia
SNB-75 CNS = system: SNB-75 CNS
A498 renal = system: A498 renal
MALME-3M melanoma = system: MALME-3M melanoma
OVCAR-8 ovarian = system: OVCAR-8 ovarian
NCI-H226 lung = system: NCI-H226 lung
HCC-2998 colon = system: HCC-2998 colon
UACC-257 melanoma = system: UACC-257 melanoma
PC-3 prostate = system: PC-3 prostate
TK-10 renal = system: TK-10 renal
HCT-15 colon = system: HCT-15 colon
IGROV1 ovarian = system: IGROV1 ovarian
CAKI-1 renal = system: CAKI-1 renal
LOX IMVI melanoma = system: LOX IMVI melanoma
SK-OV-3 ovarian = system: SK-OV-3 ovarian
NCI/ADR-RES ovarian = system: NCI/ADR-RES ovarian
SF-539 CNS = system: SF-539 CNS
SF-295 CNS = system: SF-295 CNS
SF-268 CNS = system: SF-268 CNS
OVCAR-4 ovarian = system: OVCAR-4 ovarian
DU-145 prostate = system: DU-145 prostate
NCI-H522 lung = system: NCI-H522 lung
SR leukemia = system: SR leukemia
MDA-MB-435 = system: MDA-MB-435
OVCAR-3 ovarian = system: OVCAR-3 ovarian

For `CCOC(=O)C1(C)CCc2sc(N)c(C#N)c21` (centres undefined), the TGI (UACC-62 melanoma) was > 100 µM, the TGI (U251 CNS) was > 100 µM and the TGI (K-562 leukemia) was > 100 µM. The TGI (KM12 colon) was > 100 µM, the TGI (OVCAR-5 ovarian) was > 100 µM and the TGI (NCI-H460 lung) was > 100 µM. The TGI (A549 NSCLC) was > 100 µM, the TGI (HOP-92 NSCLC) was > 100 µM and the TGI (786-0 renal) was > 100 µM. The TGI (SK-MEL-2 melanoma) was > 100 µM, the TGI (SK-MEL-28 melanoma) was > 100 µM and the TGI (MOLT-4 leukemia) was > 100 µM. For the same compound, the TGI (ACHN renal) was > 100 µM, the TGI (UO-31 renal) was > 100 µM and the TGI (BT-549 breast) was > 100 µM. For the same compound, the TGI (MCF7 breast) was > 100 µM, the TGI (NCI-H23 lung) was > 100 µM and the TGI (MDA-N) was > 100 µM. For the same compound, the TGI (RPMI-8226 leukemia) was > 100 µM, the TGI (CCRF-CEM leukemia) was > 100 µM and the TGI (SW-620 colon) was > 100 µM. The TGI (RXF 393 renal) was > 100 µM, the TGI (HT29 colon) was > 100 µM and the TGI (HCT-116 colon) was > 100 µM. The TGI (SNB-19 CNS) was > 100 µM, the TGI (HS 578T breast) was > 100 µM and the TGI (T-47D breast) was > 100 µM. For the same compound, the TGI (EKVX NSCLC) was > 100 µM, the TGI (SN12C renal) was > 100 µM and the TGI (MDA-MB-231 breast) was > 100 µM. For the same compound, the TGI (HOP-62 NSCLC) was > 100 µM, the TGI (COLO 205 colon) was > 100 µM and the TGI (M14 melanoma) was > 100 µM. For the same compound, the TGI (SK-MEL-5 melanoma) was > 100 µM, the TGI (HL-60(TB) leukemia) was > 100 µM and the TGI (SNB-75 CNS) was > 100 µM. For the same compound, the TGI (A498 renal) was > 100 µM, the TGI (MALME-3M melanoma) was > 100 µM and the TGI (OVCAR-8 ovarian) was > 100 µM. For the same compound, the TGI (NCI-H226 lung) was > 100 µM, the TGI (HCC-2998 colon) was > 100 µM and the TGI (UACC-257 melanoma) was > 100 µM. For the same compound, the TGI (PC-3 prostate) was > 100 µM, the TGI (TK-10 renal) was > 100 µM and the TGI (HCT-15 colon) was > 100 µM. For the same compound, the TGI (IGROV1 ovarian) was > 100 µM.
For `CCCC1C(CC)C(NC)C(C#N)(C#N)C1(C#N)C#N` (centres undefined), the TGI (UACC-62 melanoma) was 39.2 µM, the TGI (CAKI-1 renal) was 25.9 µM and the TGI (LOX IMVI melanoma) was 36.1 µM. The TGI (U251 CNS) was 95.1 µM, the TGI (K-562 leukemia) was > 100 µM and the TGI (KM12 colon) was 30.9 µM. The TGI (OVCAR-5 ovarian) was > 100 µM, the TGI (A549 NSCLC) was > 100 µM and the TGI (HOP-92 NSCLC) was 32.2 µM. The TGI (786-0 renal) was 34.3 µM, the TGI (SK-OV-3 ovarian) was > 100 µM and the TGI (SK-MEL-2 melanoma) was 35.7 µM. It also gave a TGI (SK-MEL-28 melanoma) of 94.3 µM, a TGI (MOLT-4 leukemia) of 76.9 µM and a TGI (ACHN renal) of 43.1 µM. The TGI (UO-31 renal) was 30 µM, the TGI (MCF7 breast) was > 100 µM and the TGI (NCI-H23 lung) was 46.8 µM. The TGI (NCI/ADR-RES ovarian) was 59 µM, the TGI (MDA-N) was 36.1 µM and the TGI (RPMI-8226 leukemia) was 43.8 µM. The TGI (CCRF-CEM leukemia) was > 100 µM, the TGI (SW-620 colon) was > 100 µM and the TGI (RXF 393 renal) was 28 µM. The TGI (HT29 colon) was 27.6 µM, the TGI (HCT-116 colon) was 30.1 µM and the TGI (SF-539 CNS) was 34.8 µM. The TGI (SNB-19 CNS) was 48.5 µM, the TGI (HS 578T breast) was > 100 µM and the TGI (T-47D breast) was 29 µM. It also gave a TGI (SF-295 CNS) of 41.9 µM, a TGI (EKVX NSCLC) of 87.6 µM and a TGI (SN12C renal) of 34.5 µM. For the same compound, the TGI (MDA-MB-231 breast) was 30.1 µM, the TGI (HOP-62 NSCLC) was 29.2 µM and the TGI (COLO 205 colon) was 26.6 µM. The TGI (M14 melanoma) was > 100 µM, the TGI (SF-268 CNS) was 34.3 µM and the TGI (SK-MEL-5 melanoma) was 24.5 µM. The TGI (HL-60(TB) leukemia) was 91.8 µM, the TGI (SNB-75 CNS) was 22.5 µM and the TGI (OVCAR-4 ovarian) was > 100 µM. For the same compound, the TGI (A498 renal) was 31.9 µM, the TGI (MALME-3M melanoma) was 63.8 µM and the TGI (OVCAR-8 ovarian) was 58.9 µM. The TGI (NCI-H226 lung) was 35.4 µM, the TGI (DU-145 prostate) was 27.2 µM and the TGI (HCC-2998 colon) was 32.9 µM. The TGI (UACC-257 melanoma) was 33.3 µM, the TGI (PC-3 prostate) was 39.9 µM and the TGI (TK-10 renal) was 34.6 µM. The TGI (NCI-H522 lung) was 33.3 µM, the TGI (SR leukemia) was 82.3 µM and the TGI (HCT-15 colon) was 28.7 µM. For the same compound, the TGI (IGROV1 ovarian) was 33.4 µM and the TGI (MDA-MB-435) was > 100 µM.
In the case of `Clc1ccc(-c2cc(-c3cc(-c4ccc(Cl)cc4)n[nH]3)[nH]n2)cc1`, the TGI (K-562 leukemia) is reported as > 100 µM, the TGI (OVCAR-5 ovarian) is reported as > 100 µM and the TGI (SK-OV-3 ovarian) is reported as > 100 µM. The TGI (SK-MEL-2 melanoma) was > 100 µM, the TGI (MOLT-4 leukemia) was > 100 µM and the TGI (ACHN renal) was > 100 µM. The TGI (UO-31 renal) was > 100 µM, the TGI (BT-549 breast) was > 100 µM and the TGI (NCI-H23 lung) was > 100 µM. The TGI (MDA-N) was > 100 µM, the TGI (RXF 393 renal) was > 100 µM and the TGI (HCT-116 colon) was > 100 µM. The TGI (T-47D breast) was > 100 µM, the TGI (EKVX NSCLC) was > 100 µM and the TGI (COLO 205 colon) was > 100 µM. For the same compound, the TGI (M14 melanoma) was > 100 µM, the TGI (SK-MEL-5 melanoma) was > 100 µM and the TGI (A498 renal) was > 100 µM. For the same compound, the TGI (MALME-3M melanoma) was > 100 µM, the TGI (NCI-H226 lung) was > 100 µM and the TGI (DU-145 prostate) was > 100 µM. For the same compound, the TGI (UACC-257 melanoma) was > 100 µM, the TGI (PC-3 prostate) was > 100 µM and the TGI (NCI-H522 lung) was > 100 µM. The TGI (IGROV1 ovarian) was > 100 µM, the TGI (MDA-MB-435) was > 100 µM and the TGI (OVCAR-3 ovarian) was > 100 µM.
